Measurements: patent EP4772506A1, “COMPOUND FOR REGULATING ACTIVITY OF MICRORNA-124” (Jiangsu Chia Tai Fenghai Pharmaceutical Co., Ltd., priority 2023, dated 2025)
Marks after values point to notes of the source that are not given here.

Key:
[1] = tested on: miR124; test: Effect of the compound on miR124 upregulation in PBMCs (qPCR, U6 as internal reference); type: cell-based, human; conditions: miR-124 expression, 5 µM, 6 days, batches normalized
Protocol: The effect of test compounds on miR124 expression levels was evaluated in human peripheral blood mononuclear cells (PBMCs). […] Test compounds (final concentration: 5 µM) were added for treatment at 37°C, 5% CO2 for 6 days, with medium replacement on day 3. The control group was treated with an equal volume of DMSO under the same conditions.
RNA Extraction: On day 6, cells were collected in a 15 mL centrifuge tube and centrifuged at 400g for 10 min, followed by supernatant removal. […] The upper RNA layer was aspirated into a clean 1.5 mL centrifuge tube (RNase-free), an equal volume of isopropanol was added, and left at room temperature for 10 min to precipitate RNA. Centrifugation at 4°C and 12000g for 10 min yielded a small white pellet at the tube bottom.
Fluorescent quantitative PCR reaction: miRNA quantification was performed using SYBR Green I intercalating fluorescence method, with simultaneous detection of the housekeeping gene U6 transcript level as internal reference.

[2] = tested on: dextran sulfate sodium (DSS)-induced ulcerative colitis; test: Preventive and therapeutic effects on DSS-induced ulcerative colitis (UC) in mice; type: in vivo, C57BL/6 mice; conditions: for relative body weight (% of initial): mean ± SEM; for Relative colon length (%): of the control group
Protocol: The preventive and therapeutic effects of the positive drug ABX464 and Compound 23 of the present disclosure on dextran sulfate sodium (DSS)-induced ulcerative colitis were evaluated using a DSS-induced ulcerative colitis (UC) model.
Female C57BL/6 mice (20-22 g) were randomly divided into 7 groups according to body weight after adaptive feeding, as shown in Table 4. On day 1, the mice were switched to 3% DSS feeding. After 10 days of DSS feeding, they were switched back to normal drinking water until day 13. From day 1 to day 13, the mice were continuously administered the corresponding solvents and drugs by gavage. Body weight changes were recorded daily from day 1 to day 13. On day 13, after recording body weight, the mice were dissected to measure colon length. The preventive and therapeutic effects of the test drug on ulcerative colitis in mice were evaluated based on relative body weight change rate and colon length. Table 4. Experimental animal grouping and model induction period

[3] = Pharmacokinetic study in rats (plasma, LC-MS/MS); conditions: rat, in vivo, po, 20 mg/kg
Protocol: • (1) SD male rats were used as test animals.
The administration solvent was a physiological saline solution containing 10% DMSO + 10% polyoxyl castor oil (Cremophor EL). Fasting was maintained for approximately 12 hours prior to administration, and free feeding was allowed 4 hours post-administration, with no water restriction. […] After gently inverting the tube to fully mix the anticoagulant EDTA-K2 with the blood, the tube was immediately placed on wet ice. The plasma was separated by centrifugation immediately after blood collection under the following centrifugation conditions: 4°C, 3500 rpm, and 5 min. The upper plasma layer was transferred and stored at -80°C until sample analysis. […] The pharmacokinetic parameters were calculated from the sample analysis results using WinNonlin software.

[4] = 6.25-50 mg/kg qd by gavage, overall conclusion
[5] = day 13, 6.25 mg/kg qd by gavage
[6] = day 13, 12.5 mg/kg qd by gavage

## FC(F)(F)Oc1ccc(Nc2ncc3ccc(Cl)cc3n2)cc1 [Compound 23]
[1]
  Average fold change compared to DMSO treatment, Average value: 6.54
[2]; [4]
  effect on colon shortening in DSS-induced ulcerative colitis mice: good therapeutic effect on colon shortening
  effect on weight loss in DSS-induced ulcerative colitis mice: favorable restorative effect on weight loss
[2]; by day 9, 50 mg/kg qd by gavage
  weight loss: 3.09%
[2]; by day 10, 6.25 mg/kg qd by gavage
  weight loss: 7.52%
[2]; by day 10, 12.5 mg/kg qd by gavage
  weight loss: 8.99%
[2]; by day 10, 25 mg/kg qd by gavage
  weight loss: 7.96%
[2]; by day 10, 50 mg/kg qd by gavage
  weight loss: 3.8%
[2]; day 1, 6.25 mg/kg qd by gavage
  relative body weight (% of initial): 100±0.00%
[2]; day 1, 12.5 mg/kg qd by gavage
  relative body weight (% of initial): 100±0.00%
[2]; day 1, 25 mg/kg qd by gavage
  relative body weight (% of initial): 100±0.00%
[2]; day 1, 50 mg/kg qd by gavage
  relative body weight (% of initial): 100±0.00%
[2]; day 2, 6.25 mg/kg qd by gavage
  relative body weight (% of initial): 101.5± 0.43%
[2]; day 2, 12.5 mg/kg qd by gavage
  relative body weight (% of initial): 99.9±0.63%
[2]; day 2, 25 mg/kg qd by gavage
  relative body weight (% of initial): 100.5± 0.37%
[2]; day 2, 50 mg/kg qd by gavage
  relative body weight (% of initial): 99.1±0.65%
[2]; day 3, 6.25 mg/kg qd by gavage
  relative body weight (% of initial): 102.4± 0.78%
[2]; day 3, 12.5 mg/kg qd by gavage
  relative body weight (% of initial): 100.8± 0.67%
[2]; day 3, 25 mg/kg qd by gavage
  relative body weight (% of initial): 101.1± 0.59%
[2]; day 3, 50 mg/kg qd by gavage
  relative body weight (% of initial): 100.2±0.78%
[2]; day 4, 6.25 mg/kg qd by gavage
  relative body weight (% of initial): 101.9± 1.02%
[2]; day 4, 12.5 mg/kg qd by gavage
  relative body weight (% of initial): 99.9 ± 0.87%
[2]; day 4, 25 mg/kg qd by gavage
  relative body weight (% of initial): 100.8± 0.44%
[2]; day 4, 50 mg/kg qd by gavage
  relative body weight (% of initial): 100.0±0.74%
[2]; day 5, 6.25 mg/kg qd by gavage
  relative body weight (% of initial): 101.7± 0.98%
[2]; day 5, 12.5 mg/kg qd by gavage
  relative body weight (% of initial): 100.5± 0.88%
[2]; day 5, 25 mg/kg qd by gavage
  relative body weight (% of initial): 99.8±0.61%
[2]; day 5, 50 mg/kg qd by gavage
  relative body weight (% of initial): 100.7±1.01%
[2]; day 6, 6.25 mg/kg qd by gavage
  relative body weight (% of initial): 100±0.97%
[2]; day 6, 12.5 mg/kg qd by gavage
  relative body weight (% of initial): 97.4±0.87%
[2]; day 6, 25 mg/kg qd by gavage
  relative body weight (% of initial): 97.5±0.81%
[2]; day 6, 50 mg/kg qd by gavage
  relative body weight (% of initial): 98.0±1.15%
[2]; day 7, 6.25 mg/kg qd by gavage
  relative body weight (% of initial): 96.4±1.18%
[2]; day 7, 12.5 mg/kg qd by gavage
  relative body weight (% of initial): 95.0±1.12%
[2]; day 7, 25 mg/kg qd by gavage
  relative body weight (% of initial): 95.3±0.98%
[2]; day 7, 50 mg/kg qd by gavage
  relative body weight (% of initial): 96.9±1.03%
[2]; day 8, 6.25 mg/kg qd by gavage
  relative body weight (% of initial): 94.4±1.50%
[2]; day 8, 12.5 mg/kg qd by gavage
  relative body weight (% of initial): 92.7±1.28%
[2]; day 8, 25 mg/kg qd by gavage
  relative body weight (% of initial): 93.7±1.43%
[2]; day 8, 50 mg/kg qd by gavage
  relative body weight (% of initial): 96.7±1.20%
[2]; day 9, 6.25 mg/kg qd by gavage
  relative body weight (% of initial): 93.4±1.75%
[2]; day 9, 12.5 mg/kg qd by gavage
  relative body weight (% of initial): 92.7±1.55%
[2]; day 9, 25 mg/kg qd by gavage
  relative body weight (% of initial): 92.6±2.25%
[2]; day 9, 50 mg/kg qd by gavage
  relative body weight (% of initial): 96.9± 1.41 %
[2]; day 10, 6.25 mg/kg qd by gavage
  relative body weight (% of initial): 92.5± 2.02 %
[2]; day 10, 12.5 mg/kg qd by gavage
  relative body weight (% of initial): 91.0± 1.78 %
[2]; day 10, 25 mg/kg qd by gavage
  relative body weight (% of initial): 92.0± 2.38 %
[2]; day 10, 50 mg/kg qd by gavage
  relative body weight (% of initial): 96.2± 1.38 %
[2]; day 11, 6.25 mg/kg qd by gavage
  relative body weight (% of initial): 92.4±2.22%
[2]; day 11, 12.5 mg/kg qd by gavage
  relative body weight (% of initial): 91.9±1.91%
[2]; day 11, 25 mg/kg qd by gavage
  relative body weight (% of initial): 94.6± 1.73 %
[2]; day 11, 50 mg/kg qd by gavage
  relative body weight (% of initial): 96.6± 1.45 %
[2]; day 12, 6.25 mg/kg qd by gavage
  relative body weight (% of initial): 92.7±2.19%
[2]; day 12, 12.5 mg/kg qd by gavage
  relative body weight (% of initial): 92.1±1.17%
[2]; day 12, 25 mg/kg qd by gavage
  relative body weight (% of initial): 93.5±1.57%
[2]; day 12, 50 mg/kg qd by gavage
  relative body weight (% of initial): 96.5± 1.62 %
[2]; [5]
  Colon length Mean: 7.18 cm
  relative body weight (% of initial): 92.0±2.52%
[2]; [6]
  Colon length Mean: 7.85 cm
  relative body weight (% of initial): 92.1±1.17%
[2]; day 13, 25 mg/kg qd by gavage
  Colon length Mean: 7.28 cm
  relative body weight (% of initial): 95.3±1.63%
[2]; day 13, 50 mg/kg qd by gavage
  Colon length Mean: 8.27 cm
  relative body weight (% of initial): 96.5± 1.62 %
[2]; day 13, 6.25 mg/kg qd by gavage, 6.25 mg/kg
  Relative colon length (%): 89.8### %
[2]; day 13, 6.25 mg/kg qd by gavage, listed as compound 23, 6.25 mg/kg
  Relative colon length (%): 89.79%
[2]; day 13, 12.5 mg/kg qd by gavage, 12.5 mg/kg
  Relative colon length (%): 98.1#### %
[2]; day 13, 12.5 mg/kg qd by gavage, listed as compound 23, 12.5 mg/kg
  Relative colon length (%): 98.1%
[2]; day 13, 25 mg/kg qd by gavage, 25 mg/kg
  Relative colon length (%): 90.9#### %
[2]; day 13, 25 mg/kg qd by gavage, listed as compound 23, 25 mg/kg
  Relative colon length (%): 90.9%
[2]; day 13, 50 mg/kg qd by gavage, 50 mg/kg
  Relative colon length (%): 103.4#### %
[2]; day 13, 50 mg/kg qd by gavage, listed as compound 23, 50 mg/kg
  Relative colon length (%): 103.3%
[3]
  AUC(0-t): 5060 ng·h/mL
  Cmax: 1850 ng/mL
  MRT inf: 2.2 h
  Tmax: 2 h
  half-life: 2.65 h
